Experiment [1] has as its system phenylalanine ammonia-lyase (PAL). As to the kind of experiment: PAL activity in crude protein extracts of treated wounded midribs. The format is biochemical, lettuce (iceberg, Romaine). The conditions noted are these: 5 d at 5° C.; for PAL activity: L-cysteine 4.1 mM or melatonin 4.3 mM; for effect on PAL activity: iceberg and Romaine, vs wounded control. An excerpt: (§1) In all tests, experimental setup began immediately upon arrival to the laboratory. 90 outer leaves were randomly selected from 18 to 22 lettuce heads that met commercial and damage-free quality standards. A midrib segment (12.5 cm) was excised from the center of each leaf and excess leaf blade tissue was trimmed parallel to the midrib. This procedure was adapted from the wounding procedure of Cantwell (2016). Each midrib was then partially sliced transversally at 1.3-cm increments along the midrib. Midribs (n=15) were immediately immersed for 30 s in one of five treatment solutions: deionized water (wounded control), L-cysteine (4.1 mM), naringenin (1.8 mM) with 20% dimethyl sulfoxide (DMSO), serotonin (2.8 or 5.7 mM) or melatonin (4.3 mM) with 0.50% DMSO. Immediately following immersion, the midribs for each treatment were patted dry using paper towels and placed (n=5) in a breathable, high-density polyethylene bag (n=3) (Narrow Profile Produce Bags [14×18 inches] Model No. S-19156, Uline®, Pleasant Prairie, WI). Unwounded control midribs were stored in the same manner. To allow for direct comparison, each cut site on each midrib was assigned an initial discoloration value on day 1 based on the coloration of the rib. Samples were stored at 5° C. with 95-98% relative humidity (RH) for 5 d, simulating commercial storage.
PAL activity was measured using a crude protein extraction following a method reported by Kim et al. (2020) with some modifications. Fresh lettuce samples (300 mg) were ground with liquid nitrogen in a pre-chilled mortar and pestle. A 0.1 mM Tris-HCl buffer (pH 8.3) was added at a 1:1 (w:v). The solution was incubated at 4° C. for 1 h and then centrifuged at 4° C., 9660×g for 15 min. Supernatants were collected in chilled tubes. Total protein content was measured using Quick Start Bradford protein assay kit (Bio-Rad, Hercules, CA, USA) and Bovine Serum Albumin (BSA) as a standard (10 mg mL^−1 in deionized water). Protein concentration was calculated based on the absorbance at 595 nm measured with a NanoDrop (One Microvolume UV-Vis Spectrophotometer, Thermo Scientific, Wilmington, DE, USA) and the standard curve. For the PAL activity test, 150 μL aliquots of the protein extract were incubated in a reaction buffer containing 0.1 mM Tris-HCl buffer (pH 8.3), 5 mM dithiothreitol (DTT), and 5 mM phenylalanine. Reaction mixtures were incubated at 37° C. for 90 min and stopped with the addition of 40 μL of 30% acetic acid. Reaction products were extracted with 600 μL of ethyl acetate and then centrifuged at 22° C., 9660×g for 5 min. The supernatant was dried in a speed vac and re-dissolved in 100 μL of 50% methanol. The final extract (10 μL) was analyzed by HPLC using the method previously described in Section 2.4.
(§2) The imaging data (a* value), enzyme activity (PAL and PPO), and metabolite (chlorogenic acid) results were expressed as mean±standard error and analyzed by lettuce type (iceberg or Romaine). For imaging data, an unpaired t-test was used to identify differences within a treatment throughout storage and among treatment groups at each time point. Treatment groups were defined as wounded, unwounded, L-cysteine, and melatonin. […] Analyses of variance were performed for PAL, PPO, and metabolite analyses using SAS software (version 9.4; SAS Institute, Cary, NC) to identify differences among treatment groups. Differences among treatments groups were separated by Tukey's Honest Significant Difference (HSD) test with a confidence level of 95%. The correlation between visual rating and a* value was evaluated for significance via an F-test, from which the P-value of the correlation was calculated.

For experiment [2], the system named is polyphenol oxidase (PPO). The experiment is described as follows: PPO activity in treated wounded midribs. The format is biochemical, lettuce (iceberg, Romaine). The conditions noted are these: 5 d at 5° C.; for PPO activity: L-cysteine 4.1 mM or melatonin 4.3 mM; for effect on PPO activity: iceberg and Romaine.
Excerpt: as §1
PPO activity was prepared and determined as reported by Teng et al. (2019) with slight modifications. Lettuce samples (300 mg) were homogenized in 150% (w/v) chilled phosphate buffer (pH 6.2, 0.05 M). Following chilling of test tubes with samples in an ice bath, samples were centrifuged at 9660×g for 10 min at 4° C. The increase in absorbance was measured every 3 s for 1 min. The slope of the linear portion of the time curve was calculated. One unit (U) of PPO activity was defined as an increase in OD410 of 0.1 unit within 1 min.
as §2

Experiment [3] concerns iceberg and Romaine lettuce midribs. As to the kind of experiment: Objective pink rib severity: a* value by RGB image analysis of cut sites. It is filed as in vivo.
Excerpt: as §1
Objective evaluations were also made after 1, 3, and 5 d by capturing an image of each wounded midrib using a digital camera (Nikon D5200, Nikon, Melville, NY, USA) under full spectrum LED lighting (Sunco Lighting, Valencia, CA, USA) with 4100 Lumens at a distance of 1.12 m. Only unwounded and treated (L-cysteine or melatonin) midribs from Test 1 were measured using this method. The camera settings were on manual mode ISO400, shutter speed 1/125, aperture 5.6, and no zoom or flash; distance from the tissue was approximately 18 inches. The white balance of the camera was set with a gray card prior to each imaging session. GNU Image Manipulation Program (GIMP, version 2.10.14; The GIMP Project c/o GNOME Foundation, Orinda, CA, USA) was used to isolate pixels from an area 1 mm in width along the length of each cut site. Because a cut site is required as a guide for pixel extraction, no data was collected from images of the unwounded midribs.
Isolated pixels were converted from the RGB to the L*a*b* color space (Commission Internationale de l'Elcairage) with the “convertColor” function in R version 4.0.0 (R Core Team, 2020), using Illuminant D65 as the white reference. The mean a* value was calculated for each group of isolated cut site pixels at each time point. In the L*a*b* color space, […] the degree of redness (+) or greenness (−); thus, the mean a* at each cut site quantified the severity of pink rib discoloration. R was also applied to subset the data, to ensure that the cut sites chosen for further analysis had similar initial color. The a* values ranged from −3 to 0 for iceberg lettuce and −6 to −3 for Romaine.
as §2

SMILES strings stand for the structures. “Also recorded” adds a separate entry of the source.

As to `COc1ccc2[nH]cc(CCNC(C)=O)c2c1` [melatonin], the PAL activity stood at 6.06 pkat mg^−1 in experiment [1] (Romaine, wounded control 9.56) and 7.44 pkat mg^−1 in experiment [1] (iceberg, wounded control 6.73). Further, the “effect on PAL activity” value in experiment [1] is listed as “no significant reduction in PAL activity; also recorded: neither enzyme activity (PAL or PPO) nor chlorogenic acid concentration were impacted; also recorded: did not significantly affect PAL or PPO enzyme activities”. The PPO activity in experiment [2] (Romaine, wounded control 5.1) amounted to 6.2 U; in experiment [2] (iceberg, wounded control 1.7), 2.6 U. In addition, the “effect on PPO activity” value in experiment [2] is recorded as “no significant differences in PPO activity; also recorded: no effect on PPO activity; also recorded: neither enzyme activity (PAL or PPO) nor chlorogenic acid concentration were impacted; also recorded: did not significantly affect PAL or PPO enzyme activities”. Besides, the “change of a* value” is on record as “increasing” in experiment [3] (melatonin 4.3 mM, Romaine, between days 3 and 5); “did not increase throughout storage” in experiment [3] (melatonin 4.3 mM, iceberg, throughout 5 d storage). Moreover, the “a* value versus control” value in experiment [3] (melatonin 4.3 mM, Romaine, day 5, control mean 1.49) is “no longer significantly different”. For the same compound, the “mean a* value” in experiment [3] (melatonin 4.3 mM, Romaine, day 5 at 5° C.) is −0.67. Also, the “a* values versus control treatments, overall” value in experiment [3] (melatonin, iceberg and Romaine) was “significantly lower a* values”.

Take `N[C@@H](CS)C(=O)O` [L-cysteine]: the PAL activity stood at 11.07 pkat mg^−1 in experiment [1] (Romaine, wounded control 9.56) and 5.43 pkat mg^−1 in experiment [1] (iceberg, wounded control 6.73). In addition, the “effect on PAL activity” value in experiment [1] is “no significant reduction in PAL activity”. The PPO activity in experiment [2] (Romaine, wounded control 5.1) was 6.4 U; in experiment [2] (iceberg, wounded control 1.7) it was 2.6 U. For the same compound, the “effect on PPO activity” value in experiment [2] is given as “no significant differences in PPO activity; also recorded: no effect on PPO activity; also recorded: neither PPO activity nor pink rib expression were reduced”. The “change of a* value” is “increase” in experiment [3] (L-cysteine 4.1 mM, Romaine, after 3 d (P=0.0242)); “increased” in experiment [3] (L-cysteine 4.1 mM, iceberg, after 3 d (P=0.0242)); “increased” in experiment [3] (L-cysteine 4.1 mM, iceberg, after 5 d (P=0.00059)).

The record behind these values is US20260314597A1, “A NOVEL APPROACH TO INTERFERE IN THE PHENYLPROPANOID BIOSYNTHETIC PATHWAY TO REDUCE PINK-RIB DISORDER IN FRESH LETTUCE” (University of Florida Research Foundation, Inc., priority 2022, published 2026).
